The source made the active and inactive calls. The rule behind the calls is not given here.
Legend:
[1] = target: T1, Gamma-secretase (Homo sapiens) (UniProt Q96BI3+Q9NZ42+Q8WW43+P49768+Q92542+P49810); assay: Ratio of IC50 for gamma-secretase-mediated inhibition of notch intracellular cytoplasmic domain secretion to IC50 for gamma-secretase-mediated inhibition of Abeta42 secretion in human HEK293 cells expressing APPNL/NotchDeltaE/EGFP/UAS-firefly luciferase by ELISA; format: cell-based
Gamma-secretase [2] = assay: Inhibition of gamma-secretase (unknown origin) expressed in N2a NL/N cells coexpressing betaAPPNL and NotchdeltaE assessed as Abeta40 secretion by ELISA; format: cell-based, Homo sapiens
Gamma-secretase [3] = assay: Inhibition of gamma-secretase in human HEK293 cells expressing APPNL/NotchDeltaE/EGFP/UAS-firefly luciferase assessed as inhibition of notch intracellular cytoplasmic domain secretion by ELISA; format: cell-based
[4] = target: T1, Gamma-secretase (Homo sapiens); assay: Inhibition of gamma-secretase in human H4 glioma cells assessed as Abeta production at 0.1 to 10 µM by immunoblot analysis; format: cell-based
Gamma-secretase [5] = assay: Inhibition of gamma-secretase in human HEK293 cells expressing APPNL/NotchDeltaE/EGFP/UAS-firefly luciferase assessed as inhibition of IAbeta40 secretion by ELISA; format: cell-based
[6] = target: T1, Gamma-secretase (Homo sapiens); assay: Inhibition of gamma-secretase (unknown origin) expressed in N2a NL/N cells coexpressing betaAPPNL and NotchdeltaE assessed as Abeta42 secretion at 100 nM by ELISA; format: cell-based
Gamma-secretase [7] = assay: Inhibition of gamma-secretase (unknown origin) expressed in N2a NL/N cells coexpressing betaAPPNL and NotchdeltaE assessed as Abeta42 secretion by ELISA; format: cell-based, Homo sapiens
[8] = target: T1, Gamma-secretase (Homo sapiens); assay: Displacement of biotinylated PS1NTF from gamma-secretase (unknown origin); format: protein-complex assay
[9] = target: T1, Gamma-secretase (Homo sapiens); assay: Inhibition of gamma-secretase (unknown origin) expressed in N2a NL/N cells coexpressing betaAPPNL and NotchdeltaE assessed as Abeta40 secretion at 100 nM by ELISA; format: cell-based
Gamma-secretase [10] = assay: Inhibition of gamma-secretase in human HEK293 cells expressing APPNL/NotchDeltaE/EGFP/UAS-firefly luciferase assessed as inhibition of Abeta42 secretion by ELISA; format: cell-based

| SMILES | Ratio IC50 [1] | IC50 (Gamma-secretase [2]) [nM] | IC50 (Gamma-secretase [3]) [nM] | inhibition [4] | IC50 (Gamma-secretase [5]) [nM] | inhibition [6] | IC50 (Gamma-secretase [7]) [nM] | Activity [8] | inhibition [9] | IC50 (Gamma-secretase [10]) [nM] |
| --- | --- | --- | --- | --- | --- | --- | --- | --- | --- | --- |
| CC(=O)N1CCC[C@H]1C(=O)N1CCC[C@H]1C(=O)N1CCC[C@H]1C(=O)N1CCC[C@H]1C(=O)N1CCC[C@H]1C(=O)N1CCC[C@H]1C(=O)N1CCC[C@H]1C(=O)N1CCC[C@H]1C(=O)N1CCC[C@H]1C(=O)N1CCC[C@H]1C(=O)N1CCC[C@H]1C(N)=O |  | > 30000 |  |  |  |  | > 30000 |  |  |  |
| CC(=O)N[C@H]1CCC[C@@H]1C(=O)N[C@H]1CCC[C@@H]1C(=O)N[C@H]1CCC[C@@H]1C(=O)N[C@H]1CCC[C@@H]1C(=O)N[C@H]1CCC[C@@H]1C(=O)N[C@H]1CCC[C@@H]1C(=O)N[C@H]1CCC[C@@H]1C(=O)N[C@H]1CCC[C@@H]1C(=O)N[C@H]1CCC[C@@H]1C(=O)N[C@H]1CCC[C@@H]1C(N)=O |  | 2280 |  |  |  |  | 5210 |  |  |  |
| CC(=O)N1CCC[C@@H]1C(=O)N1CCC[C@@H]1C(=O)N1CCC[C@@H]1C(=O)N1CCC[C@@H]1C(=O)N1CCC[C@@H]1C(=O)N1CCC[C@@H]1C(=O)N1CCC[C@@H]1C(=O)N1CCC[C@@H]1C(=O)N1CCC[C@@H]1C(N)=O |  | > 30000 |  |  |  |  | > 30000 |  |  |  |

Continued, values first:

| Ratio IC50 [1] | IC50 (Gamma-secretase [2]) [nM] | IC50 (Gamma-secretase [3]) [nM] | inhibition [4] | IC50 (Gamma-secretase [5]) [nM] | inhibition [6] | IC50 (Gamma-secretase [7]) [nM] | Activity [8] | inhibition [9] | IC50 (Gamma-secretase [10]) [nM] | SMILES |
| --- | --- | --- | --- | --- | --- | --- | --- | --- | --- | --- |
| 0.478 | 0.402 | 41.3 | Active | 84.2 | Active | 0.83 | Active | Active | 86.4 | CC(=O)N[C@H]1CCC[C@@H]1C(=O)N[C@H]1CCC[C@@H]1C(=O)NC(CO)CC(=O)N[C@H]1CCC[C@@H]1C(=O)N[C@H]1CCC[C@@H]1C(=O)N[C@H]1CCC[C@@H]1C(=O)N[C@H]1CCC[C@@H]1C(=O)N[C@H]1CCC[C@@H]1C(=O)N[C@H]1CCC[C@@H]1C(=O)N[C@H]1CCC[C@@H]1C(=O)N[C@H]1CCC[C@@H]1C(=O)N[C@H]1CCC[C@@H]1C(N)=O (single isomer, unassigned) |
| 0.0462 | 0.555 | 3.16 | Active | 84.6 | Active | 0.88 | Active | Active | 68.4 | CC(=O)N[C@H]1CCC[C@@H]1C(=O)N[C@H]1CCC[C@@H]1C(=O)N[C@@H](CC(N)=O)CC(=O)N[C@H]1CCC[C@@H]1C(=O)N[C@H]1CCC[C@@H]1C(=O)N[C@H]1CCC[C@@H]1C(=O)N[C@H]1CCC[C@@H]1C(=O)N[C@H]1CCC[C@@H]1C(=O)N[C@H]1CCC[C@@H]1C(=O)N[C@H]1CCC[C@@H]1C(=O)N[C@H]1CCC[C@@H]1C(=O)N[C@H]1CCC[C@@H]1C(N)=O |
| 0.0326 | 8.81 | 20.4 |  | 1180 |  | 9.93 |  |  | 626 | CC(=O)N[C@H]1CCC[C@@H]1C(=O)N[C@H]1CCC[C@@H]1C(=O)N[C@H]1CCC[C@@H]1C(=O)N[C@H]1CCC[C@@H]1C(=O)N[C@H]1CCC[C@@H]1C(=O)N[C@H]1CCC[C@@H]1C(=O)N[C@H]1CCC[C@@H]1C(=O)N[C@H]1CCC[C@@H]1C(=O)N[C@H]1CCC[C@@H]1C(=O)N[C@H]1CCC[C@@H]1C(=O)N[C@H]1CCC[C@@H]1C(=O)N[C@H]1CCC[C@@H]1C(N)=O |
|  | 2.47 |  |  |  | Active | 7.47 |  | Active |  | CC(=O)N[C@H]1CCC[C@@H]1C(=O)N[C@H]1CCC[C@@H]1C(=O)NCCC(=O)N[C@H]1CCC[C@@H]1C(=O)N[C@H]1CCC[C@@H]1C(=O)N[C@H]1CCC[C@@H]1C(=O)N[C@H]1CCC[C@@H]1C(=O)N[C@H]1CCC[C@@H]1C(=O)N[C@H]1CCC[C@@H]1C(=O)N[C@H]1CCC[C@@H]1C(=O)N[C@H]1CCC[C@@H]1C(=O)N[C@H]1CCC[C@@H]1C(N)=O |

— ChEMBL document CHEMBL2331477, “Effect of helical conformation and side chain structure on γ-secretase inhibition by β-peptide foldamers: insight into substrate recognition” (J Med Chem, 2013)
